According to patent US9192639B1, “Convolvulus extract for treatment of peptic ulcer and helicobacter pylori infection” (KING SAUD UNIVERSITY, priority 2014, dated 2015):

Experiments:
[1] = tested on: H. pylori clinical isolates and reference strain ATCC 43504; test: Disk diffusion test, anti-Helicobacter pylori activity; format: cell-based; design: key to Inhibition Zone: *R: Resistant
[2] = tested on: absolute ethanol-induced ulcer in Wistar rats; test: Anti-ulcerogenic activity, absolute ethanol-induced ulcer model; format: in vivo; settings: oral 100 mg/kg; for % Protection: % protection of control ulcer, 100 mg/kg
Description: Evaluation of the anti-ulcerogenic activity was carried out using an absolute ethanol-induced ulcer model according to published methods. About 30 Wistar rats were divided into 5 groups, each of 6 rats. Group 1 received the vehicle and served as control group. Group 2 received ranitidine (100 mg/kg) and served as a standard group. […] Rats of all groups were fasted for 24 hours, and then all medications were administered orally. […] The stomachs were rapidly removed, opened along their greater curvature, and gently rinsed under running tap water. The number of lesions in the glandular part of the stomach was measured under an illuminated magnifying microscope (10×). Long lesions were counted and their lengths were measured. Petechial lesions were counted, and then each five petechial lesions were taken as 1 mm of ulcer. The mucosal lesions were quantified by the scoring system (0-5), where 0=no damage; 1=Local edema and inflammation without ulcers; 2=One ulcer without inflammation; 3=one to two ulcers with inflammation & lesion diameter <1 cm; 4=More than two ulcers with lesion diameter 1-2 cm; 5=Sever ulceration with lesion diameter >2 cm. To calculate the ulcer index (mm), the sum of the total length of long ulcers and petechial lesions in each group of rats was divided by its number. The curative ratio was determined according to the formula: % Protection of control ulcer=Control UI−Test UI/Control UI×100.

CC[C@H]1OC(=O)[C@H](C)[C@@H](O[C@H]2C[C@@](C)(OC)[C@@H](O)[C@H](C)O2)[C@H](C)[C@@H](O[C@@H]2O[C@H](C)C[C@H](N(C)C)[C@H]2O)[C@](C)(O)C[C@@H](C)C(=O)[C@H](C)[C@@H](O)[C@]1(C)O [Erythromycin]
Inhibition Zone ([1]; H. pylori strain ATCC 43504, disk 15 μg): 28 mm
Inhibition Zone ([1]; H. pylori strain KA01, disk 15 μg): 19 mm
Inhibition Zone ([1]; H. pylori strain KA02, disk 15 μg): 23 mm
Inhibition Zone ([1]; H. pylori strain KA03, disk 15 μg): 22 mm
Inhibition Zone ([1]; H. pylori strain KA04, disk 15 μg): 22 mm
Inhibition Zone ([1]; H. pylori strain KA05, disk 15 μg): 20 mm
Inhibition Zone ([1]; H. pylori strain KA07, disk 15 μg): 23 mm
Inhibition Zone ([1]; H. pylori strain KAO6, disk 15 μg): 24 mm
Susceptibility of H. pylori isolates by disc diffusion ([1]; all of the isolates of H. pylori): sensitive

CNC(=C[N+](=O)[O-])NCCSCc1ccc(CN(C)C)o1 [Ranitidine]
% Protection [2]: 46.2%
% Protection ([2]; listed as ranitidine): about 46.2%
Score ([2]; mucosal lesion scoring system 0-5): 2.2

CC1(C)S[C@@H]2[C@H](NC(=O)[C@H](N)c3ccc(O)cc3)C(=O)N2[C@H]1C(=O)O [Amoxicillin]
Inhibition Zone ([1]; H. pylori strain ATCC 43504, disk 30 μg): 30 mm
Inhibition Zone ([1]; H. pylori strain KA01, disk 30 μg): R*
Inhibition Zone ([1]; H. pylori strain KA01, disk 30 μg, listed as amoxicillin): resistant
Inhibition Zone ([1]; H. pylori strain KA02, disk 30 μg): 20 mm
Inhibition Zone ([1]; H. pylori strain KA03, disk 30 μg): 21 mm
Inhibition Zone ([1]; H. pylori strain KA04, disk 30 μg): 20 mm
Inhibition Zone ([1]; H. pylori strain KA05, disk 30 μg): 22 mm
Inhibition Zone ([1]; H. pylori strain KA07, disk 30 μg): 25 mm
Inhibition Zone ([1]; H. pylori strain KAO6, disk 30 μg): 23 mm
Susceptibility of H. pylori isolates by disc diffusion ([1]; all isolates with the exception of isolate KA01): sensitive
